{
  "source": "paper PMC10620772",
  "about": "“Design, synthesis, and biological evaluation of new pyrimidine-5-carbonitrile derivatives as novel anti-cancer, dual EGFR^WT/COX-2 inhibitors with docking studies” (RSC Advances, 2023)",
  "system": "active caspase-3 in Colo 205 cells",
  "test": "Caspase-3 ELISA",
  "assay_type": "cell-based, human",
  "details": "Colo_205, treated at IC50",
  "excerpt": "Among the death proteases, the caspases family of cysteine-dependent aspartate-directed proteases is significant. There are multiple levels where caspase activation and activity are regulated.[43] Caspases are activated during apoptosis, which eventually results in cell death by deactivating a number of signals.[44] One of the crucial survival signals, EGFR, may be the target of caspase activation to ensure the completion of apoptosis.[45] Additionally, it has been reported that activating caspase-3 through COX-2 inhibition enhances apoptosis.[40] Therefore, the impact of the novel compounds on the level of caspase 3 was examined.\n(1) Into the antibody coated wells add 100 μl of standard diluent buffer excepts wells wich detected to be the chromogen blank, then add 100 μl. […] (10) Decant liquid from wells then wash, (11) pipette 100 μl of chromogen substrate to all wells, The well fluid will start to become blue. (12) 30 minutes should be spent incubating at room temperature in the dark. (13) To each well, add 100 μl of stop solution. To mix, lightly tap the plate's edge. The well solution should transform from blue to yellow. (14) Read the absorbance of each well using a microtiter plate reader at 450 nm. (15) Draw the standard curve using a curve fitting program. (16) The standard curve can be used to determine the concentrations for unknown samples and controls.[55]",
  "data": [
    {"smiles": "CN[C@@H]1C[C@H]2O[C@@](C)([C@@H]1OC)n1c3ccccc3c3c4c(c5c6ccccc6n2c5c31)C(=O)NC4", "note": "[Staurosporine, reference compound]", "values": [
      {"measurement": "Caspase 3", "value": "766.2 ± 10.4", "unit": "pg·mL"}
    ]}
  ]
}
